Legend:
Linsitinib = compound: C[C@]1(O)C[C@@H](c2nc(-c3ccc4ccc(-c5ccccc5)nc4c3)c3c(N)nccn32)C1 [Linsitinib]; assay: relative viability (nuclei count vs DMSO), 5 days (fraction); higher = more cells survive
How it was run: (§1)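 Viability here means nuclei in treated wells divided by nuclei in vehicle wells, reported as the median across plates. Only plates with control CV below 25% and at least one doubling passed. Lung cancer cell lines in 1536-well plates were exposed to five √10-spaced library-drug doses for 5 days and counted from 4× Hoechst images in MetaXpress.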

Ispinesib = compound: Cc1ccc(C(=O)N(CCCN)[C@@H](c2nc3cc(Cl)ccc3c(=O)n2Cc2ccccc2)C(C)C)cc1 [Ispinesib]; assay: as above
How it was run: as §1

Row | Cell Line | relative viability (Linsitinib; 0.01 µM) | relative viability (Linsitinib; 0.03162 µM) | relative viability (Linsitinib; 0.1 µM) | relative viability (Linsitinib; 0.3162 µM) | relative viability (Linsitinib; 1 µM) | relative viability (Linsitinib; 1 µM, anchor plate) | relative viability (Ispinesib; 0.001 µM) | relative viability (Ispinesib; 0.003162 µM) | relative viability (Ispinesib; 0.01 µM) | relative viability (Ispinesib; 0.03162 µM) | relative viability (Ispinesib; 0.1 µM)
1 | NCI-H2023 | 0.912 | 0.668 | 0.949 | 0.649 | 0.618 | 0.687 | 1.08 | 0.961 | 1.06 | 0.387 | 0.177
2 | NCI-H2085 | 0.93 | 1 | 1.05 | 0.915 | 0.906 | 0.888 | 1.02 | 1.02 | 1.06 | 0.854 | 0.536
3 | NCI-H2087 | 1.07 | 1.04 | 1.13 | 0.615 | 0.683 | 0.908 | 1.01 | 1.03 | 1.23 | 0.335 | 0.137
4 | NCI-H2126 | 1.01 | 0.971 | 1 | 0.818 | 0.71 | 0.715 | 0.978 | 1.08 | 1.06 | 0.992 | 0.564
5 | NCI-H2170 | 1.02 | 0.962 | 0.939 | 0.746 | 1.02 |  | 1.03 | 1.05 | 1.08 | 0.599 | 0.253
6 | NCI-H2228 | 0.882 | 0.873 | 0.768 | 0.752 | 0.746 | 0.741 | 1.03 | 1 | 1.38 | 0.688 | 0.344
7 | NCI-H2342 | 0.889 | 1.07 | 0.86 | 1.01 | 0.768 |  | 0.986 | 0.942 | 1.04 | 0.935 | 0.638
8 | NCI-H2347 | 1.09 | 1.19 | 0.981 | 0.805 | 0.942 | 0.935 | 1.03 | 1.1 | 1.13 | 0.897 | 0.87
9 | NCI-H2405 | 0.93 | 0.966 | 1 | 0.821 | 0.678 | 0.891 | 1.05 | 1.05 | 1.05 | 0.884 | 0.561
10 | NCI-H3122 | 0.99 | 0.947 | 1 | 0.575 | 1.02 | 1.01 | 1.09 | 1.06 | 1.01 | 0.779 | 0.172
11 | PC-3 [JPC-3] | 1.04 | 1.06 | 1.1 | 0.947 | 0.916 | 0.949 | 1.06 | 1.15 | 1.09 | 0.909 | 0.533
12 | PC-14 | 0.963 | 0.929 | 0.981 | 0.895 | 0.867 | 0.959 | 1.06 | 1.09 | 0.898 | 0.404 | 0.121
13 | RERF-LC-KJ | 1 | 1.01 | 0.949 | 0.682 | 0.871 | 0.878 | 1.04 | 0.975 | 1.03 | 0.684 | 0.331
14 | SK-LU-1 | 1.01 | 0.859 | 1.03 | 0.6 | 0.967 | 0.999 | 1.15 | 1.15 | 1.16 | 0.881 | 0.592
15 | SK-MES-1 | 0.962 | 1.01 | 1.01 | 0.811 | 0.874 | 1.05 | 1.06 | 1.11 | 1.06 | 0.56 | 0.252
16 | SW 900 | 0.885 | 0.986 | 0.862 | 0.538 | 0.477 |  | 0.858 | 0.995 | 1.05 | 0.683 | 0.283
17 | SW 1573 | 1.04 | 1.01 | 0.98 | 0.796 | 0.723 | 0.801 | 1.01 | 0.973 | 1.1 | 0.666 | 0.343
